Here are results for 3 molecules from patent US5922709A, “Antifungal composition” (Banyu Pharmaceutical Co., Ltd., priority 1995, dated 1999).

Common to all, as to type: cell-based
The test system of assay [1] is Candida albicans IFO 1385. Description: Minimum inhibitory concentration (agar dilution method) of miconazole in the presence or absence of BE-31405, Candida albicans IFO 1385. The settings on record: for MIC of miconazole: yeast morphology agar, 37° C., 2 days.
In assay [2] the test system is Candida albicans IFO 1270. Description: Minimum inhibitory concentration (agar dilution method) of itraconazole in the presence and absence of BE-31405, Candida albicans IFO 1270. The following applies: for MIC of intraconazole: 37° C., 2 days. The protocol: (§1) Now, the minimum inhibitory concentrations (MIC, by an agar dilution method) of itraconazole against Candida albicans IFO 1270, IFO 1385 and ATCC90028 in the presence and absence of BE-31405, are shown in Tables 3, 4 and 5, respectively. As the agar medium for the measurement of MIC, a culture medium having 1% of glucose and 1.2% of agar added to a yeast nitrogen base, manufactured by Difico Co., was used, and after inoculation of the strain solution, culturing was carried out at 37° C. for 2 days, whereupon the concentration at which no growth of the strain was observed, was judged to be MIC.

Assay [3] deals with Candida albicans IFO 1385. Kind of assay: Minimum inhibitory concentration (agar dilution method) of itraconazole in the presence and absence of BE-31405, Candida albicans IFO 1385. The following applies: for MIC of intraconazole: 37° C., 2 days. On the procedure:
as §1

The subject of assay [4] is Candida albicans ATCC 90028. Description: Minimum inhibitory concentration (agar dilution method) of itraconazole in the presence and absence of BE-31405, Candida albicans ATCC 90028. The settings on record: for MIC of intraconazole: 37° C., 2 days. The protocol:
as §1

[5] abbreviates: BE-31405 0.0 μg/ml (absence), yeast nitrogen base, 1% glucose, 1.2% agar.
The mark [6] stands for this setting: itraconazole combined with BE-31405, IFO 1270 (Table 3).
Where [7] appears, read: with BE-31405 0.025 μg/ml, yeast nitrogen base agar.
Where [8] appears, read: with BE-31405 0.1 μg/ml, yeast nitrogen base agar.
Setting [9] is: with BE-31405 0.39 μg/ml, yeast nitrogen base agar.
The mark [10] stands for this setting: itraconazole combined with BE-31405, IFO 1385 (Table 4).
[11] abbreviates: with BE-31405 0.05 μg/ml, yeast nitrogen base agar.
Where [12] appears, read: itraconazole combined with BE-31405, ATCC 90028 (Table 5).

Converted amounts (≈) assume the structure as drawn.

In the case of `Clc1ccc(COC(Cn2ccnc2)c2ccc(Cl)cc2Cl)c(Cl)c1` (stereo not drawn) [miconazole], the MIC of miconazole in assay [1] (BE-31405 0.0 μg/ml (absence)) is 12.5 µg/mL; in assay [1] (with BE-31405 0.1 μg/ml), 1.56 µg/mL; in assay [1] (with BE-31405 0.2 μg/ml) it was 0.78 µg/mL; in assay [1] (with BE-31405 0.39 μg/ml) it was 0.39 µg/mL; in assay [1] (with BE-31405 0.78 μg/ml), 0.05 µg/mL. The “antifungal activities of miconazole in the presence of a low concentration of BE-31405” value in assay [1] (in the presence of a low concentration of BE-31405) is given as “substantially enhanced”. For the same molecule, the “fractional inhibitory concentration index” value in assay [1] (miconazole combined with BE-31405) turned out to be 0.2. Besides, in assay [1] (miconazole combined with BE-31405, judged from fractional inhibitory concentration index), the “effect of combined use” value is recorded as “synergistic effect”.

Consider `CCC(C)n1ncn(-c2ccc(N3CCN(c4ccc(OCC5COC(Cn6cncn6)(c6ccc(Cl)cc6Cl)O5)cc4)CC3)cc2)c1=O` (stereo not drawn) [itraconazole], for which the MIC of intraconazole in assay [2] (setting [5]) was over 100 µg/mL; in assay [2] (with BE-31405 0.006 μg/ml, yeast nitrogen base agar) it was 0.05 µg/mL; in assay [2] (setting [7]), 0.013 µg/mL; in assay [2] (setting [8]), 0.013 µg/mL; in assay [2] (setting [9]), 0.013 µg/mL; in assay [3] (setting [5]), over 100 µg/mL. Moreover, the MIC of intraconazole in assay [3] (setting [7]) is 1.56 µg/mL; in assay [3] (setting [11]), 0.2 µg/mL; in assay [3] (setting [8]), 0.1 µg/mL; in assay [3] (setting [9]), 0.05 µg/mL; in assay [4] (setting [5]), over 100 µg/mL; in assay [4] (setting [7]), 1.56 µg/mL. The MIC of intraconazole stood at 0.2 µg/mL in assay [4] (setting [11]), 0.2 µg/mL in assay [4] (setting [8]) and 0.1 µg/mL in assay [4] (setting [9]). Also, the “effect of combined use” value in assay [2] (setting [6]), in assay [3] (setting [10]) and in assay [4] (setting [12]) was “strong synergistic effects” in each case. Besides, the “fractional inhibitory concentration index” value in assay [2] (setting [6]), in assay [3] (setting [10]) and in assay [4] (setting [12]) was “at most 0.2” throughout. For the same molecule, the “antifungal activities of itraconazole in the presence of a low concentration of BE-31405” value in assay [2] (low concentration of BE-31405, IFO 1270 (Table 3)) is “substantially enhanced”; in assay [3] (low concentration of BE-31405, IFO 1385 (Table 4)), “substantially enhanced”; in assay [4] (low concentration of BE-31405, ATCC 90028 (Table 5)), “substantially enhanced”.

Consider `CC(=O)OC1C2OC3(OCC45CC6C(C)CCC6C6(C=O)CC4C=C(C(C)C)C65C(=O)O)OC2OC1C3O` (stereo not drawn) [BE-31405], for which the minimum inhibitory concentration (MIC) in assay [1] (Candida albicans, IFO1385, 48 h, BE31405 alone under this test condition (Table 2)) was 1.56 µg/mL (≈ 2.93 µM); in assay [2] (Candida albicans, IFO1270, 48 h, BE31405 alone under this test condition (Table 3)), 0.78 µg/mL (≈ 1.46 µM); in assay [3] (Candida albicans, IFO1385, 48 h, BE31405 alone under this test condition (Table 4)) it was 1.56 µg/mL (≈ 2.93 µM); in assay [4] (Candida albicans, ATCC90028, 48 h, BE31405 alone under this test condition (Table 5)), 1.56 µg/mL (≈ 2.93 µM).
